# What was measured:
# [1] = system: healthy female subjects; experiment: Example 1 clinical study, one 28-day cycle: dysmenorrhea as treatment-emergent adverse event; type: in vivo, human
# Procedure: During that study, healthy female subjects were treated for one 28-day cycle with either 10 or 20 mg E4 alone (n=10 and 11, respectively) or with a combination of E4 with either Progesterone (P) or Desogestrel (DSG) (n=15 or 16, respectively).
# At baseline, occasional dysmenorrhea was reported by 11 subjects (21.2%), and frequent dysmenorrhea was reported by 19 subjects (36.5%). Overall, dysmenorrhea was reported by 25% to 53.3% of the subjects included in this trial.
# As shown in Table 3 of Treatment-emergent adverse events (TE-AE) below, reporting of dysmenorrhea during the treatment phase was low in comparison to the incidence recorded at baseline.
# [2] = Triglycerides levels on daily estrogen use; type: in vivo, human; conditions: even at higher dosages
# Source text: Besides, the daily use of currently marketed estrogens (ethinylestradiol (EE), E2, E2V, conjugated equine estrogens) is associated with a dose-proportional increase in triglycerides levels. In the human body, high levels of triglycerides in the bloodstream have been linked to atherosclerosis and, by extension, the risk of heart disease and stroke.
# [3] = Terminal half-life; conditions: in vivo
# [4] = 10 mg E4, n = 10, one 28-day cycle
# [5] = 20 mg E4 alone (n = 11), with DSG (n = 15) or with P4 (n = 16), one 28-day cycle
structure (smiles),measurement,setting,value
"C[C@]12CC[C@@H]3c4ccc(O)cc4CC[C@H]3[C@@H]1[C@@H](O)[C@@H](O)[C@@H]2O [E4, estetrol]","Dysmenorrhea TE-AE, % of subjects",[1]; [4],10.0%
same,"Dysmenorrhea TE-AE, number of subjects",[1]; [4],1
same,"Dysmenorrhea TE-AE, % of subjects",[1]; [5],9.1%
same,"Dysmenorrhea TE-AE, number of subjects",[1]; [5],1
same,triglycerides levels,[2],minimally increases triglycerides levels
same,terminal half-life,[3],31.7 h

# Source: US11896602B2, “Method for preventing pregnancy” (ESTETRA SRL, priority 2016, dated 2024)
